Test results taken from the CheMixHub viscosity set.
± gives the uncertainty stated by the source.

Assay: xn = mol fraction of the nth substance listed

CC(C)c1ccccc1 + Cc1ccccc1
Conditions	viscosity [mPa·s]
293.15 K, 101.33 kPa, x2 = 0.2846	0.727 ± 0.015
293.15 K, 101.33 kPa, x2 = 0.5253	0.676 ± 0.01
293.15 K, 101.33 kPa, x2 = 0.6998	0.644 ± 0.008
293.15 K, 101.33 kPa, x2 = 0.856	0.612 ± 0.006
298.15 K, 101.3 kPa, x2 = 0.1169	0.6671 ± 0.0056
298.15 K, 101.3 kPa, x2 = 0.2596	0.643 ± 0.0055
298.15 K, 101.3 kPa, x2 = 0.3951	0.6203 ± 0.0053
298.15 K, 101.3 kPa, x2 = 0.508	0.6016 ± 0.0052
298.15 K, 101.3 kPa, x2 = 0.605	0.5854 ± 0.0051
298.15 K, 101.3 kPa, x2 = 0.7505	0.5615 ± 0.0049
298.15 K, 101.3 kPa, x2 = 0.8459	0.5459 ± 0.0048
298.15 K, 101.3 kPa, x2 = 0.9474	0.5288 ± 0.0047
303.15 K, 101.33 kPa, x2 = 0.2846	0.638 ± 0.013
303.15 K, 101.33 kPa, x2 = 0.5253	0.597 ± 0.009
303.15 K, 101.33 kPa, x2 = 0.6998	0.57 ± 0.007
303.15 K, 101.33 kPa, x2 = 0.856	0.544 ± 0.005
313.15 K, 101.33 kPa, x2 = 0.2846	0.569 ± 0.011
313.15 K, 101.33 kPa, x2 = 0.5253	0.533 ± 0.008
313.15 K, 101.33 kPa, x2 = 0.6998	0.509 ± 0.006
313.15 K, 101.33 kPa, x2 = 0.856	0.485 ± 0.005
323.15 K, 101.33 kPa, x2 = 0.2846	0.507 ± 0.01
323.15 K, 101.33 kPa, x2 = 0.5253	0.477 ± 0.007
323.15 K, 101.33 kPa, x2 = 0.6998	0.458 ± 0.006
323.15 K, 101.33 kPa, x2 = 0.856	0.437 ± 0.005

CCCCOC(C)=O + Cc1ccccc1
viscosity [mPa·s], 101 kPa
Conditions	293.15 K	298.15 K	303.15 K	308.15 K	313.15 K	318.15 K
x1 = 0.0478	–	0.552 ± 0.005	–	0.499 ± 0.004	–	–
x1 = 0.1494	–	0.556 ± 0.005	–	0.503 ± 0.004	–	–
x1 = 0.249	–	0.563 ± 0.005	–	0.509 ± 0.004	–	–
x1 = 0.348	–	0.571 ± 0.005	–	0.515 ± 0.004	–	–
x1 = 0.4469	–	0.581 ± 0.005	–	0.523 ± 0.004	–	–
x1 = 0.501	–	0.587 ± 0.005	–	0.528 ± 0.005	–	–
x1 = 0.5488	–	0.593 ± 0.005	–	0.532 ± 0.005	–	–
x1 = 0.6468	–	0.607 ± 0.005	–	0.543 ± 0.005	–	–
x1 = 0.7365	–	0.621 ± 0.005	–	0.554 ± 0.005	–	–
x1 = 0.8683	–	0.645 ± 0.005	–	0.572 ± 0.005	–	–
x1 = 0.9671	–	0.666 ± 0.005	–	0.588 ± 0.005	–	–
x2 = 0.1024	0.7105 ± 0.0073	0.6642 ± 0.0069	0.6223 ± 0.0066	0.5852 ± 0.0064	0.5502 ± 0.0062	0.5173 ± 0.006
x2 = 0.205	0.6942 ± 0.007	0.6504 ± 0.0067	0.6104 ± 0.0065	0.5742 ± 0.0062	0.5405 ± 0.006	0.5084 ± 0.0058
x2 = 0.3107	0.6786 ± 0.0068	0.6362 ± 0.0065	0.5973 ± 0.0063	0.5624 ± 0.0061	0.5294 ± 0.0059	0.4996 ± 0.0057
x2 = 0.4031	0.6661 ± 0.0066	0.6247 ± 0.0064	0.587 ± 0.0061	0.5526 ± 0.0059	0.5208 ± 0.0058	0.4908 ± 0.0056
x2 = 0.4615	0.6566 ± 0.0065	0.6161 ± 0.0063	0.579 ± 0.0061	0.546 ± 0.0059	0.514 ± 0.0057	0.4858 ± 0.0055
x2 = 0.5069	0.6517 ± 0.0065	0.6115 ± 0.0062	0.5746 ± 0.006	0.5408 ± 0.0058	0.5103 ± 0.0056	0.4814 ± 0.0055
x2 = 0.5564	0.6439 ± 0.0064	0.6045 ± 0.0061	0.5683 ± 0.0059	0.5352 ± 0.0058	0.5051 ± 0.0056	0.4769 ± 0.0054
x2 = 0.614	0.6371 ± 0.0063	0.5984 ± 0.0061	0.5628 ± 0.0059	0.5301 ± 0.0057	0.5003 ± 0.0055	0.4725 ± 0.0054
x2 = 0.7101	0.6252 ± 0.0062	0.5864 ± 0.006	0.5515 ± 0.0058	0.5197 ± 0.0056	0.4913 ± 0.0055	0.4644 ± 0.0053
x2 = 0.8103	0.6123 ± 0.006	0.5753 ± 0.0058	0.5419 ± 0.0057	0.5103 ± 0.0055	0.4833 ± 0.0054	0.4562 ± 0.0052
x2 = 0.908	0.6017 ± 0.006	0.5667 ± 0.0058	0.5337 ± 0.0056	0.5035 ± 0.0054	0.4761 ± 0.0053	0.4496 ± 0.0052

C=COC(C)=O + Cc1ccccc1C
viscosity [mPa·s], 101 kPa
Conditions	x1 = 0.1492	x1 = 0.2538	x1 = 0.3604	x1 = 0.4517	x1 = 0.5641	x1 = 0.6689	x1 = 0.7705	x1 = 0.8616	x1 = 0.9508
303.15 K	0.632 ± 0.008	0.594 ± 0.008	0.558 ± 0.007	0.529 ± 0.007	0.494 ± 0.006	0.463 ± 0.006	0.435 ± 0.006	0.413 ± 0.005	0.394 ± 0.005
313.15 K	0.57 ± 0.007	0.537 ± 0.007	0.505 ± 0.007	0.478 ± 0.006	0.446 ± 0.006	0.417 ± 0.005	0.391 ± 0.005	0.37 ± 0.005	0.353 ± 0.005

CCCCOC(C)=O + Cc1ccccc1C
viscosity [mPa·s], 101 kPa
Conditions	298.15 K	308.15 K
x1 = 0.0481	0.751 ± 0.005	0.652 ± 0.005
x1 = 0.1501	0.735 ± 0.005	0.64 ± 0.005
x1 = 0.2484	0.722 ± 0.005	0.63 ± 0.005
x1 = 0.3482	0.71 ± 0.005	0.621 ± 0.005
x1 = 0.4474	0.7 ± 0.005	0.614 ± 0.005
x1 = 0.5002	0.696 ± 0.005	0.61 ± 0.005
x1 = 0.5477	0.692 ± 0.005	0.607 ± 0.005
x1 = 0.657	0.685 ± 0.005	0.602 ± 0.005
x1 = 0.7456	0.68 ± 0.005	0.599 ± 0.005
x1 = 0.8459	0.677 ± 0.005	0.596 ± 0.005
x1 = 0.9461	0.675 ± 0.005	0.594 ± 0.005

OCCc1ccccc1 + Cc1ccccc1N
viscosity [mPa·s], 100 kPa
Conditions	x2 = 0.0857	x2 = 0.1652	x2 = 0.2724	x2 = 0.3731	x2 = 0.4711	x2 = 0.6147	x2 = 0.7123	x2 = 0.8105	x2 = 0.8904
303.15 K	8.539 ± 0.51	8.086 ± 0.49	7.473 ± 0.45	6.895 ± 0.41	6.332 ± 0.38	5.503 ± 0.33	4.937 ± 0.3	4.366 ± 0.26	3.9 ± 0.23
308.15 K	7.247 ± 0.44	6.868 ± 0.41	6.356 ± 0.38	5.874 ± 0.35	5.402 ± 0.33	4.708 ± 0.28	4.234 ± 0.26	3.755 ± 0.23	3.364 ± 0.2
313.15 K	6.014 ± 0.36	5.714 ± 0.34	5.307 ± 0.32	4.923 ± 0.3	4.548 ± 0.27	3.994 ± 0.24	3.616 ± 0.22	3.234 ± 0.2	2.921 ± 0.18
318.15 K	4.751 ± 0.29	4.532 ± 0.27	4.234 ± 0.26	3.952 ± 0.24	3.676 ± 0.22	3.269 ± 0.2	2.991 ± 0.18	2.708 ± 0.16	2.476 ± 0.15

CCCCCCCC(=O)O + ClC(Cl)(Cl)Cl
298.15 K, 101 kPa
Conditions	viscosity [mPa·s]
x1 = 0.05	1.011 ± 0.027
x1 = 0.11	1.124 ± 0.029
x1 = 0.16	1.248 ± 0.033
x1 = 0.21	1.38 ± 0.036
x1 = 0.42	2.021 ± 0.053
x1 = 0.52	2.406 ± 0.063
x1 = 0.62	2.867 ± 0.075
x1 = 0.81	3.905 ± 0.1

N#CCCl + ClC(Cl)(Cl)Cl
viscosity [mPa·s], 101 kPa
Conditions	293.15 K	298.15 K	303.15 K	313.15 K	323.15 K
x1 = 0.014	0.983 ± 0.026	0.907 ± 0.024	0.844 ± 0.022	0.749 ± 0.02	0.672 ± 0.018
x1 = 0.087	0.939 ± 0.025	0.867 ± 0.023	0.803 ± 0.021	0.71 ± 0.019	0.633 ± 0.017
x1 = 0.222	0.914 ± 0.024	0.841 ± 0.022	0.78 ± 0.02	0.688 ± 0.018	0.615 ± 0.016

ClCCOCCCl + FB(F)F
101 kPa, x2 = 0.0939
Conditions	viscosity [mPa·s]
293.15 K	23.94 ± 0.64
303.15 K	14.59 ± 0.4
313.15 K	9.569 ± 0.26
323.15 K	6.506 ± 0.18

C1COCOC1 + NC=O
viscosity [mPa·s], 101 kPa
Conditions	x2 = 0.6012	x2 = 0.6156	x2 = 0.8658	x2 = 0.8689	x2 = 0.9552	x2 = 0.9555
298.15 K	2.039 ± 0.038	–	3.119 ± 0.042	–	–	3.328 ± 0.039
313.15 K	–	1.581 ± 0.029	–	2.196 ± 0.029	2.366 ± 0.027	–
